Among the data in patent US7009052B2, “Sulfonamide derivatives” (Warner Lambert Company LLC, priority 2003, dated 2006) are IC50 values, retold here.

This assay concerns the target T1, androgen receptor (Homo sapiens, UniProt P10275).
T1 sequence (P10275 1-920 Q868H): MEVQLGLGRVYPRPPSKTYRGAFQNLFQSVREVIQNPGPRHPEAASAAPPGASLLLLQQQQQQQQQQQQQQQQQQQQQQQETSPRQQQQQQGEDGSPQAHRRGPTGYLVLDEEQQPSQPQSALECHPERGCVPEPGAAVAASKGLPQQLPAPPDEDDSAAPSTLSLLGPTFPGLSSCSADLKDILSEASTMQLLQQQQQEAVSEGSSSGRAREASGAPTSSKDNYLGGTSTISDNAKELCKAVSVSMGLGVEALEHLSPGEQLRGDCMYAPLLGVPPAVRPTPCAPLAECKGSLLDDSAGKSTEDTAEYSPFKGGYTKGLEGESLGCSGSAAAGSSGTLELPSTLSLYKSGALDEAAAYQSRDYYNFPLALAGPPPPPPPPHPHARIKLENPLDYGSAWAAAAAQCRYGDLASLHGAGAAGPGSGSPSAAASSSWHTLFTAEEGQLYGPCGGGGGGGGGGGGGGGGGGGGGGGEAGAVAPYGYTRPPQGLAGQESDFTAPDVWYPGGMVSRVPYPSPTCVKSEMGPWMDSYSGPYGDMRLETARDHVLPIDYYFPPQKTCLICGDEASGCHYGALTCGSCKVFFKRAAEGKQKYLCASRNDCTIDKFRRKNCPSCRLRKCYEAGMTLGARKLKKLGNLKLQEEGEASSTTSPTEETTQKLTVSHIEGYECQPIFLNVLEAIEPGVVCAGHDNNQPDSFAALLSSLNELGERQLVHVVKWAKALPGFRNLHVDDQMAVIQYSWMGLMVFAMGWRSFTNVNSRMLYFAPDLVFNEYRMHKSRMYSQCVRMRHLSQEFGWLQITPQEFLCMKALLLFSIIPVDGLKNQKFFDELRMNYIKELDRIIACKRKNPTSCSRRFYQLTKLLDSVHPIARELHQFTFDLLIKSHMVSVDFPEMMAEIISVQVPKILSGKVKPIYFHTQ
As to the kind of experiment: AR Antagonist Cell Assay (MMTV-luciferase reporter, DHT-induced). Type of assay: cell-based. The settings on record: MDA-MB453-MMTV clone 54-19 cells, 100 pM DHT, 17 hr. The protocol: The compounds ability to antagonize the effects of androgen on the androgen receptor were determined in the protocol described immediately below.
Experimental Procedure for AR Antagonist Cell Assay
Cell line: MDA-MB453-MMTV clone 54-19. This cell line is a stable transfected cell line with MDA-MB453 cell background (human breast tumor cell expressing high level of androgen receptor). A MMTV minimal promoter containing ARE was first cloned in front of a firefly luciferase reporter gene. Then the cascade was cloned into transfection vector pUV120puro. Electroporation method was used for transfecting MDA-MB-453 cell. Puromycin resistant stable cell line was selected.
Cell Culture Media and Reagents:
Culture medium: DMEM (high glucose, Gibco cat #: 11960-044), 10% FBS, and 1% L-glutamine
Plating medium: DMEM (phenol red free), 10% charcoal treated HyClone serum, 1% L-glutamine
Assay medium: DMEM (phenol red free), 1% charcoal treated HyClone serum, 1% L-glutamine, and 1% penicillin/streptomycin
3× luciferase buffer: 2% beta-mercaptoethanol, 0.6% ATP, 0.0135% luciferine in cell lysis buffer
• 1. Cells are maintained in culture medium, splitting cells when they reach 80–90% confluence • 2. To test compounds, 10,000 cells/well are plated to opaque 96 cell culture plate in 100 ul/well plating medium, culture for overnight at 37° C. in cell culture incubator • 3. Carefully remove plating medium, then add 80 ul/well of pre-warmed assay medium, add 10 ul/well testing compound (final concentration at 10 uM or 1 uM), incubate at 37° C. for 30 minutes • 4. Add 10 ul/well freshly prepared DHT (final concentration at 100 pM) to each well, incubate at 37° C. for 17 hr (overnight) • 5. Add 50 ul/well 3× luciferase buffer, incubate at room temperature for 5 minutes, then count on Luminometer The fold induction over background by 100 pM DHT in the absence of testing compounds is standardized as 100% and experimental result is expressed as percentage of inhibition by testing compounds. TABLE3
In general terms: Reporter assays use an easily measured gene product as a stand-in for the process of interest.

Some results are limits rather than exact numbers.

With `CCCCN(CC)S(=O)(=O)c1ccc2c(c1)c(C(F)(F)F)cc(=O)n2C` [Example 4, 1-Methyl-2-oxo-4-trifluoromethyl-1,2-dihydroquinoline-6-sulfonicacid butylethylamide], the IC50 was determined as 10.6 µM.
For the compound `CCCCN(CCO)S(=O)(=O)c1ccc2c(c1)c(C(F)(F)F)cc(=O)n2C` [Example 5, 1-Methyl-2-oxo-4-trifluoromethyl-1,2-dihydroquinoline-6-sulfonicacid butyl(2-hydroxyethyl)-amide], the IC50 is over 10 µM.
In the case of `Cn1c(=O)cc(C(F)(F)F)c2cc(S(=O)(=O)N(CCO)Cc3ccccc3)ccc21` [Example 6, 1-Methyl-2-oxo-4-trifluoromethyl-1,2-dihydroquinoline-6-sulfonicacid benzyl(2-hydroxyethyl)-amide], the half-maximal inhibitory concentration (IC50) was over 10 µM.
For `CCCCCN(CCO)S(=O)(=O)c1ccc2c(c1)c(C(F)(F)F)cc(=O)n2C` [Example 7, 1-Methyl-2-oxo-4-trifluoromethyl-1,2-dihydroquinoline-6-sulfonicacid (2-hydroxyethyl)-pentylamide] the value was over 10 µM.
For `CCCCN(C)S(=O)(=O)c1ccc2c(c1)c(C(F)(F)F)cc(=O)n2C` [Example 8, 1-Methyl-2-oxo-4-trifluoromethyl-1,2-dihydroquinoline-6-sulfonicacid butyimethylamide] the value was over 10 µM; for `Cn1c(=O)cc(C(F)(F)F)c2cc(S(=O)(=O)N(Cc3ccccc3)Cc3ccccc3)ccc21` [Example 9, 1-Methyl-2-oxo-4-trifluoromethyl-1,2-dihydroquinoline-6-sulfonicacid dibenzylamide], over 10 µM; for `CCN(Cc1ccccc1)S(=O)(=O)c1ccc2c(c1)c(C(F)(F)F)cc(=O)n2C` [Example 10, 1-Methyl-2-oxo-4-trifluoromethyl-1,2-dihydroquinoline-6-sulfonicacid benzylethylamide], 6.35 µM.
On to `CN(c1ccccc1)S(=O)(=O)c1ccc2c(c1)c(C(F)(F)F)cc(=O)n2C` [Example 12, 1-Methyl-2-oxo-4-trifluoromethyl-1,2-dihydroquinoline-6-sulfonicacid methylphenylamide], for which the 50% inhibitory concentration (IC50) was over 10 µM.
Turning to `Cc1cccc(NS(=O)(=O)c2ccc3c(c2)c(C(F)(F)F)cc(=O)n3C)c1` [Example 13, 1-Methyl-2-oxo-4-trifluoromethyl-1,2-dihydroquinoline-6-sulfonicacid m-tolylamide], half-maximal inhibition (IC50) required 0.76 µM.
In the case of `Cc1ccc(NS(=O)(=O)c2ccc3c(c2)c(C(F)(F)F)cc(=O)n3C)cc1` [Example 14, 1-Methyl-2-oxo-4-trifluoromethyl-1,2-dihydroquinoline-6-sulfonicacid p-tolylamide], the IC50 was found to be 1.03 µM.
`C#Cc1ccc(NS(=O)(=O)c2ccc3c(c2)c(C(F)(F)F)cc(=O)n3C)cc1` [Example 15, 1-Methyl-2-oxo-4-trifluoromethyl-1,2-dihydroquinoline-6-sulfonicacid (4-ethynylphenyl)amide] yielded an IC50 of 1.17 µM.
As for `CCc1cccc(NS(=O)(=O)c2ccc3c(c2)c(C(F)(F)F)cc(=O)n3C)c1` [Example 16, 1-Methyl-2-oxo-4-trifluoromethyl-1,2-dihydroquinoline-6-sulfonicacid (3-ethylphenyl)amide], it took 5.03 µM to reach half-maximal inhibition (IC50).
For `CCc1ccc(NS(=O)(=O)c2ccc3c(c2)c(C(F)(F)F)cc(=O)n3C)cc1` [Example 17, 1-Methyl-2-oxo-4-trifluoromethyl-1,2-dihydroquinoline-6-sulfonicacid (4-ethylphenyl)amide] the value was 0.87 µM; for `Cc1cccc(C)c1NS(=O)(=O)c1ccc2c(c1)c(C(F)(F)F)cc(=O)n2C` [Example 18, 1-Methyl-2-oxo-4-trifluoromethyl-1,2-dihydroquinoline-6-sulfonicacid (2,6-dimethylphenyl)amide], over 10 µM; for `Cn1c(=O)cc(C(F)(F)F)c2cc(S(=O)(=O)Nc3ccccc3CO)ccc21` [Example 19, 1-Methyl-2-oxo-4-trifluoromethyl-1,2-dihydroquinoline-6-sulfonicacid(2-hydroxymethylphenyl)amide], over 10 µM.

The term IC50 denotes the concentration at which inhibition is half-maximal.
